Measured values published in PubChem BioAssay AID248 (DTP/NCI, 2004).
Several values for one entry are separate records, joined by “and”; a condition that tells them apart may be missing. Identical values can stand only once. Toxic doses and inconclusive results are not listed. No stated cut-off is given here; in the data, active means T/C of 150% or more; inactive means T/C below 125%.

Test system: L1210 leukemia ip in BDF1 mice, survival T/C
Assay: NCI In Vivo Anticancer Drug Screen. Data for tumor model L1210 Leukemia (intraperitoneal) in B6D2F1 (BDF1) mice
Details: higher = longer survival
Outline: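 Antitumor effect is assessed in tumor-bearing animals. Survival in the compound arm is compared with a vehicle-dosed control arm and expressed as their quotient.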

[1] = endpoint: mean survival time, dose: 100.0 mg/kg/injection, schedule: Q01DX001 (ip), vehicle: saline
[2] = endpoint: mean survival time, dose: 200.0 mg/kg/injection, schedule: Q01DX001 (ip), vehicle: saline
[3] = endpoint: mean survival time, dose: 400.0 mg/kg/injection, schedule: Q01DX001 (ip), vehicle: saline
[4] = endpoint: mean survival time, dose: 100.0 mg/kg/injection, schedule: Q04DX003 (ip), vehicle: saline with Tween-80
[5] = endpoint: mean survival time, dose: 200.0 mg/kg/injection, schedule: Q04DX003 (ip), vehicle: saline with Tween-80
[6] = endpoint: mean survival time, dose: 100.0 mg/kg/injection, schedule: Q01DX001 (ip), vehicle: carboxymethylcellulose (CMC)
[7] = endpoint: mean survival time, dose: 200.0 mg/kg/injection, schedule: Q01DX001 (ip), vehicle: carboxymethylcellulose (CMC)
[8] = endpoint: mean survival time, dose: 400.0 mg/kg/injection, schedule: Q01DX001 (ip), vehicle: carboxymethylcellulose (CMC)
[9] = endpoint: mean survival time, dose: 100.0 mg/kg/injection, schedule: Q04DX003 (ip), vehicle: saline
[10] = endpoint: mean survival time, dose: 200.0 mg/kg/injection, schedule: Q04DX003 (ip), vehicle: saline
[11] = endpoint: mean survival time, dose: 400.0 mg/kg/injection, schedule: Q04DX003 (ip), vehicle: saline

Measured: T/C

O=CC(O)CO (stereo not given)
inactive: endpoint: mean survival time, dose: 62.5 mg/kg/injection, schedule: Q01DX009 (ip), vehicle: carboxymethylcellulose (CMC) 102 % of control | endpoint: mean survival time, dose: 108.0 mg/kg/injection, schedule: Q01DX Z (ip), vehicle: other 95 % of control | endpoint: mean survival time, dose: 125.0 mg/kg/injection, schedule: Q01DX001 (ip), vehicle: carboxymethylcellulose (CMC) 98 % of control | endpoint: mean survival time, dose: 125.0 mg/kg/injection, schedule: Q01DX009 (ip), vehicle: carboxymethylcellulose (CMC) 116 % of control | endpoint: mean survival time, dose: 180.0 mg/kg/injection, schedule: Q01DX Z (ip), vehicle: other 112 % of control | endpoint: mean survival time, dose: 250.0 mg/kg/injection, schedule: Q01DX001 (ip), vehicle: carboxymethylcellulose (CMC) 105 % of control | endpoint: mean survival time, dose: 250.0 mg/kg/injection, schedule: Q01DX009 (ip), vehicle: carboxymethylcellulose (CMC) 116 % of control | endpoint: mean survival time, dose: 300.0 mg/kg/injection, schedule: Q01DX Z (ip), vehicle: other 113 % of control | endpoint: mean survival time, dose: 500.0 mg/kg/injection, schedule: Q01DX001 (ip), vehicle: carboxymethylcellulose (CMC) 100 % of control | endpoint: mean survival time, dose: 500.0 mg/kg/injection, schedule: Q01DX009 (ip), vehicle: carboxymethylcellulose (CMC) 118 % of control | endpoint: mean survival time, dose: 500.0 mg/kg/injection, schedule: Q01DX Z (ip), vehicle: other 115 % of control | endpoint: mean survival time, dose: 833.0 mg/kg/injection, schedule: Q01DX Z (ip), vehicle: other 114 % of control | endpoint: mean survival time, dose: 1000.0 mg/kg/injection, schedule: Q01DX001 (ip), vehicle: carboxymethylcellulose (CMC) 110 % of control | endpoint: median survival time, dose: 352.0 mg/kg/injection, schedule: Q01DX005 (ip), vehicle: saline sonified 122 % of control | endpoint: median survival time, dose: 440.0 mg/kg/injection, schedule: Q01DX005 (ip), vehicle: other 118 % of control | endpoint: median survival time, dose: 440.0 mg/kg/injection, schedule: Q01DX005 (ip), vehicle: saline sonified 116 % of control | endpoint: median survival time, dose: 550.0 mg/kg/injection, schedule: Q01DX005 (ip), vehicle: saline sonified 122 % of control | endpoint: median survival time, dose: 688.0 mg/kg/injection, schedule: Q01DX005 (ip), vehicle: other 107 % of control | endpoint: median survival time, dose: 688.0 mg/kg/injection, schedule: Q01DX005 (ip), vehicle: saline sonified 111 % of control | endpoint: median survival time, dose: 860.0 mg/kg/injection, schedule: Q01DX005 (ip), vehicle: other 51 % of control | endpoint: median survival time, dose: 1053.0 mg/kg/injection, schedule: Q01DX001 (ip), vehicle: other 119 % of control | endpoint: median survival time, dose: 1053.0 mg/kg/injection, schedule: Q01DX001 (ip), vehicle: saline sonified 122 % of control | endpoint: median survival time, dose: 1170.0 mg/kg/injection, schedule: Q01DX001 (ip), vehicle: other 117 % of control | endpoint: median survival time, dose: 1170.0 mg/kg/injection, schedule: Q01DX001 (ip), vehicle: saline sonified 122 % of control | endpoint: median survival time, dose: 1300.0 mg/kg/injection, schedule: Q01DX001 (ip), vehicle: other 117 % of control | endpoint: median survival time, dose: 1300.0 mg/kg/injection, schedule: Q01DX001 (ip), vehicle: saline sonified 122 % of control | endpoint: median survival time, dose: 1444.0 mg/kg/injection, schedule: Q01DX001 (ip), vehicle: other 121 % of control | endpoint: median survival time, dose: 1444.0 mg/kg/injection, schedule: Q01DX001 (ip), vehicle: saline sonified 122 % of control | endpoint: median survival time, dose: 1604.0 mg/kg/injection, schedule: Q01DX001 (ip), vehicle: other 51 % of control | endpoint: median survival time, dose: 1782.0 mg/kg/injection, schedule: Q01DX001 (ip), vehicle: other 75 % of control

O=C1c2ccccc2C(=O)c2c(O)c([N+](=O)[O-])cc([N+](=O)[O-])c21
inactive: [1] 98 % of control | [2] 104 % of control | [3] 100 % of control

CNC(=O)NC1C(O)C(OC)OC2COC(c3ccccc3)OC21 (stereo not given)
inactive: [4] 92 % of control | [5] 92 % of control

O=[N+]([O-])c1ccc(C(O)C=C(C(F)(F)F)C(F)(F)F)cc1 (stereo not given)
inactive: endpoint: mean survival time, dose: 12.5 mg/kg/injection, schedule: Q01DX009 (ip), vehicle: Klucel (hydroxypropylcellulose) (HPC) 100 % of control | endpoint: mean survival time, dose: 25.0 mg/kg/injection, schedule: Q01DX009 (ip), vehicle: Klucel (hydroxypropylcellulose) (HPC) 97 % of control | endpoint: mean survival time, dose: 100.0 mg/kg/injection, schedule: Q04DX003 (ip), vehicle: Klucel (hydroxypropylcellulose) (HPC) 95 % of control | endpoint: mean survival time, dose: 200.0 mg/kg/injection, schedule: Q04DX003 (ip), vehicle: Klucel (hydroxypropylcellulose) (HPC) 95 % of control | endpoint: mean survival time, dose: 400.0 mg/kg/injection, schedule: Q04DX003 (ip), vehicle: Klucel (hydroxypropylcellulose) (HPC) 97 % of control

CC(C)=CCC/C(C)=C\CCl
inactive: endpoint: mean survival time, dose: 25.0 mg/kg/injection, schedule: Q01DX009 (ip), vehicle: saline with Tween-80 93 % of control | endpoint: mean survival time, dose: 50.0 mg/kg/injection, schedule: Q01DX009 (ip), vehicle: saline with Tween-80 106 % of control | endpoint: mean survival time, dose: 100.0 mg/kg/injection, schedule: Q01DX009 (ip), vehicle: saline with Tween-80 97 % of control and 101 % of control | [4] 104 % of control | [5] 93 % of control | endpoint: mean survival time, dose: 400.0 mg/kg/injection, schedule: Q04DX003 (ip), vehicle: saline with Tween-80 90 % of control

O=C1c2cc(Cl)ccc2-c2c(F)cc(Cl)cc21
inactive: [6] 103 % of control | [7] 105 % of control | [8] 105 % of control

Brc1ccc(N=C2NN=CC2(c2ccccc2)c2ccccc2)cc1
inactive: [6] 94 % of control | [7] 88 % of control | [8] 88 % of control

O=C(Nc1ccc(Cl)cc1)Oc1c(Cl)cc(Cl)c(Cl)c1[N+](=O)[O-]
inactive: endpoint: mean survival time, dose: 100.0 mg/kg/injection, schedule: Q04DX002 (ip), vehicle: gum acacia 94 % of control | endpoint: mean survival time, dose: 200.0 mg/kg/injection, schedule: Q04DX002 (ip), vehicle: gum acacia 88 % of control

CCC(CO)NC(=O)/C=C/c1ccccc1Cl (stereo not given)
inactive: endpoint: mean survival time, dose: 100.0 mg/kg/injection, schedule: Q01DX001 (ip), vehicle: saline with Tween-80 95 % of control | endpoint: mean survival time, dose: 200.0 mg/kg/injection, schedule: Q01DX001 (ip), vehicle: saline with Tween-80 100 % of control | endpoint: mean survival time, dose: 400.0 mg/kg/injection, schedule: Q01DX001 (ip), vehicle: saline with Tween-80 92 % of control

O=C(N/N=C/c1ccc2c(c1)CCC2)Nc1ccc([N+](=O)[O-])cc1[N+](=O)[O-]
inactive: [9] 91 % of control | [10] 98 % of control | [11] 101 % of control

CCCCN(CCCC)C(=O)OCC
inactive: [1] 103 % of control | [2] 94 % of control | [3] 101 % of control

CCCCNC(=O)c1cc(NC(=O)Nc2ccc(C3=NCCN3)cc2)cc(NC(=O)Nc2ccc(C3=NCCN3)cc2)c1
inactive: endpoint: mean survival time, dose: 8.0 mg/kg/injection, schedule: Q01DX Z (ip), vehicle: carboxymethylcellulose (CMC) 122 % of control | endpoint: mean survival time, dose: 16.0 mg/kg/injection, schedule: Q01DX Z (ip), vehicle: carboxymethylcellulose (CMC) 117 % of control | endpoint: mean survival time, dose: 62.0 mg/kg/injection, schedule: Q01DX Z (ip), vehicle: carboxymethylcellulose (CMC) 122 % of control | endpoint: mean survival time, dose: 125.0 mg/kg/injection, schedule: Q01DX Z (ip), vehicle: carboxymethylcellulose (CMC) 122 % of control | endpoint: mean survival time, dose: 250.0 mg/kg/injection, schedule: Q01DX Z (ip), vehicle: carboxymethylcellulose (CMC) 110 % of control

C/C=C/C(=O)OC(=O)/C=C/C
inactive: endpoint: mean survival time, dose: 25.0 mg/kg/injection, schedule: Q04DX003 (ip), vehicle: saline with Tween-80 94 % of control | endpoint: mean survival time, dose: 50.0 mg/kg/injection, schedule: Q04DX003 (ip), vehicle: saline with Tween-80 98 % of control | [4] 113 % of control | [9] 114 % of control

Nc1c(S(=O)(=O)O)cc(Nc2cccc(CO)c2)c2c1C(=O)c1ccccc1C2=O
inactive: endpoint: mean survival time, dose: 5.0 mg/kg/injection, schedule: Q01DX001 (ip), vehicle: saline 105 % of control | endpoint: mean survival time, dose: 10.0 mg/kg/injection, schedule: Q01DX001 (ip), vehicle: saline 103 % of control | endpoint: mean survival time, dose: 20.0 mg/kg/injection, schedule: Q01DX001 (ip), vehicle: saline 101 % of control | endpoint: mean survival time, dose: 40.0 mg/kg/injection, schedule: Q01DX001 (ip), vehicle: saline 94 % of control | endpoint: mean survival time, dose: 80.0 mg/kg/injection, schedule: Q01DX001 (ip), vehicle: saline 95 % of control | [1] 95 % of control | [9] 101 % of control | [2] 93 % of control | [10] 104 % of control | [11] 92 % of control

CC(=O)C1=CN(C(C)(C)C)COC1C (stereo not given)
inactive: endpoint: mean survival time, dose: 50.0 mg/kg/injection, schedule: Q01DX009 (ip), vehicle: Klucel (hydroxypropylcellulose) (HPC) 104 % of control | endpoint: mean survival time, dose: 100.0 mg/kg/injection, schedule: Q01DX009 (ip), vehicle: Klucel (hydroxypropylcellulose) (HPC) 95 % of control | endpoint: mean survival time, dose: 200.0 mg/kg/injection, schedule: Q01DX009 (ip), vehicle: Klucel (hydroxypropylcellulose) (HPC) 110 % of control
